Patent US8394765B2, “Methods of treating obesity with two different anti-obesity agents” (Amylin Pharmaceuticals LLC, priority 2004, dated 2013)

Legend:
Format in all cases: in vivo, rat
[1] = Pair-feeding experiment in DIO rats, amylin+leptin (Example 2); conditions: two weeks, ad libitum access to food, FIG. 7
Experimental: Amylin is known to have an anorectic effect on a recipient. In order to examine the effect of amylin+leptin in the context of an anorectic effect of amylin, a pair-feeding experiment was performed. DIO rats and drug treatment groups were established as described above. DIO rats in the vehicle, amylin, and amylin+leptin treatment groups had ad libitum access to food, while intake in the pair-fed leptin treatment was restricted to the amount consumed by the amylin-treated group. Body weight was recorded daily for the two weeks of treatment. […] The combination of amylin+leptin results in a decrease of about 12% in body weight relative to vehicle control.

[2] = DIO rats, amylin and sibutramine, body weight and body composition (Example 4)
Experimental: (§1) Rat amylin was dissolved in 50% DMSO in sterile water and sibutramine was dissolved in sterile water. Each group was implanted with subcutaneous osmotic mini-pumps designed to deliver vehicle, sibutramine (3 mg/kg/day) or amylin (100 μg/kg/day) for a 14 day period. Body weight and food intake were recorded daily. Body composition was measured prior to and after drug treatment using NMR (Echo Medical Systems, Houston, Tex.). For body composition measurements, rats were briefly placed (˜1 min) in a well-ventilated plexiglass tube that was then inserted into a specialized rodent NMR machine. Rats were scanned prior to pump implantation and on the final day of the experiment. This enabled the calculation of changes in actual grams of fat and dry lean tissue (e.g., grams of body fat after treatment−grams of body fat at baseline=change in grams of body fat) and changes in % body composition for fat and dry lean tissue (e.g., % body fat after treatment−% body fat at baseline=change in % body fat).

[3] = DIO rats, amylin and exendin-4 analog, body weight and body composition (Example 6)
Experimental: […]. Prior to drug administration rats had typically attained a mean body weight of 500 g Exendin-4 analog was administered by minipump at a range of doses (0.3, 1, 3, 10, 30 μg/kg/day). Amylin (dissolved in 50% DMSO in water) or vehicle was administered by mini-pump (100 μg/kg/day). Body weight and food intake was recorded daily. Body composition was measured prior to and after drug treatment using NMR (Echo Medical Systems, Houston, Tex.). For body composition measurements, rats were briefly placed (˜1 min) in a well-ventilated plexiglass tube that was then inserted into a specialized rodent NMR machine. Rats were scanned prior to pump implantation and on the final day of the experiment. This enabled the calculation of changes in actual grams of fat and dry lean tissue (e.g., grams of body fat after treatment−grams of body fat at baseline=change in grams of body fat) and changes in % body composition for fat and dry lean tissue (e.g., % body fat after treatment−% body fat at baseline=change in % body fat).

[4] = Serum leptin levels by immunoassay in DIO prone and normal HSD rats after amylin (Example 3); conditions: amylin 100 μg/kg/day, 14 days, FIG. 8
Experimental: DIO prone and normal HSD rats were divided into three treatment groups. Two groups were implanted with subcutaneous osmotic mini-pumps (DURECT Corp., Cupertino, Calif.) designed to deliver vehicle or amylin (100 μg/kg/day) and the third group was pair-fed to the amount consumed by the amylin-treated group for a 14 day period. Serum leptin levels were determined by immunoassays using a commercial kit (Linco Research, Inc., St. Charles, Mo.). […] Thus, DIO prone rats are hyper-leptinemic.

[5] = DIO rats, amylin and PYY(3-36), body weight and body composition (Example 7)
Experimental: Each group was implanted with subcutaneous osmotic mini-pumps, designed to deliver vehicle, PYY(3-36) (1000 μg/kg/day), amylin (100 μg/kg/day) or PYY(3-36) (1000 μg/kg/day)+amylin (100 μg/kg/day) for a 14 day period. PYY(3-36) was administered by mini-pump at a range of doses (100, 200, 400, 800, 1000 μg/kg/day). Amylin 100 μg/kg/day (dissolved in 50% DMSO sterile water), PYY(3-36) (dissolved in 50% DMSO sterile water) or vehicle was administered by mini-pump. Food intake and body weight was recorded daily. Body composition was measured prior to and after drug treatment using NMR (Echo Medical Systems, Houston, Tex.). For body composition measurements, rats were briefly placed (˜1 min) in a well-ventilated plexiglass tube that was then inserted into a specialized rodent NMR machine. Rats were scanned prior to pump implantation and on the final day of the experiment. This enabled the calculation of changes in actual grams of fat and dry lean tissue (e.g., grams of body fat after treatment−grams of body fat at baseline […]) and changes in % body composition for fat and dry lean tissue (e.g., % body fat after treatment−% body fat at baseline=change in % body fat).

[6] = DIO (Levin) rats, amylin and CB-1 antagonist rimonabant, body weight and body composition (Example 5)
Experimental: These rats were developed by Barry Levin from a line of Crl:CD®(SD)BR rats that are prone to become obese on a diet relatively high in fat and energy. They were housed individually in shoebox cages at 22 C in a 12/12-hour light dark cycle. […] Rats were habituated to oral gavage for 1 week prior to treatment. Rimonabant was administered at a range of doses (0.1, 0.3, 1.0, 3.0. 10 mg/kg/day) by oral gavage. Amylin (dissolved in 50% DMSO sterile water) or vehicle was administered by mini-pump (100 μg/kg/day). Rimonabant was always delivered just prior to lights out. Food intake and body weight were measured at 1 and 2 weeks post-treatment. Body composition was measured prior to and after drug treatment using NMR (Echo Medical Systems, Houston, Tex.). For body composition measurements, rats were briefly placed (˜1 min) in a well-ventilated plexiglass tube that was then inserted into a specialized rodent NMR machine. Rats were scanned prior to pump implantation and on the final day of the experiment. This enabled the calculation of changes in actual grams of fat and dry lean tissue (e.g., grams of body fat after treatment−grams of body fat at baseline=change in grams of body fat) and changes in % body composition for fat and dry lean tissue (e.g., % body fat after treatment−% body fat at baseline=change in % body fat).

[7] = DIO rats, amylin and phentermine, body weight and body composition (Example 4)
Experimental: The combination of amylin and catecholaminergic agonist, phentermine, were also tested for effects on changes in body weight and body composition. Phentermine is classically referred to as a catecholaminergic agonist as it actually hits NA/5-HT receptors. DIO male rats were fattened and divided into four treatment groups, as described above. Each group was implanted with subcutaneous osmotic mini-pumps and/or inserted with an oral gavage, designed to deliver vehicle, phentermine (10 mg/kg/day), amylin (100 μg/kg/day) or phentermine (10 mg/kg/day)+amylin (100 μg/kg/day) for a 14 day period. The mini-pump contained either vehicle (50% DMSO in water) or amylin while the oral gavage administered either sterile water or phentermine. Body weight was recorded daily and body composition was measured prior to and after drug treatment using NMR.

[8] = In-bred DIO (Levin) rats, amylin and leptin, body weight and NMR body composition (Example 2); conditions: two weeks, leptin 500 μg/kg/day, amylin 100 μg/kg/day, FIG. 6A
Experimental: They were housed individually in shoebox cages at 22 C in a 12/12-hour light dark cycle.
as §1, with “Body” for “Rat amylin was dissolved in 50% DMSO in sterile water and sibutramine was dissolved in sterile water. Each group was implanted with subcutaneous osmotic mini-pumps designed to deliver vehicle, sibutramine (3 mg/kg/day) or amylin (100 μg/kg/day) for a 14 day period. Body weight and food intake were recorded daily. Body”

Substance: Rat amylin
- decrease in body weight relative to vehicle control [1]: ~6%
- changes in body fat (fat mass) ([2]; after two weeks, FIG. 10B): Fat mass loss was evident
- changes in body protein (lean mass) ([2]; after two weeks, FIG. 10C): increase in lean (protein) mass
- vehicle-corrected decrease in percent body weight ([2]; two weeks, sibutramine 3 mg/kg/day, amylin 100 μg/kg/day, FIG. 10A): ~6%
- changes in body fat (fat mass) ([3]; after two weeks, FIG. 15B): relatively equivalent decrease in fat mass
- changes in body protein (lean mass) ([3]; after two weeks, FIG. 15C): relatively equivalent increase in lean (protein) mass
- vehicle-corrected decrease in percent body weight ([3]; two weeks, exendin-4 analog 10 μg/kg/day, amylin 100 μg/kg/day, FIG. 15A): ~6%
- serum (plasma) leptin levels ([4]; DIO prone rats): significantly reduced
- serum (plasma) leptin levels ([4]; normal HSD rats): significantly reduced
- changes in body protein (lean mass) ([5]; after two weeks, FIG. 16C): increase in lean (protein) mass
- changes in body fat (fat mass loss) ([5]; after two weeks, order PYY(3-36) alone, amylin alone, combination, FIG. 16B): Increasing amount of fat mass loss
- vehicle-corrected decrease in percent body weight ([5]; two weeks, PYY(3-36) 1000 μg/kg/day, amylin 100 μg/kg/day, FIG. 16A): ~7%
- changes in body fat (fat mass) ([6]; after two weeks, FIG. 12B): Fat mass loss was evident
- changes in body protein (lean mass) ([6]; after two weeks, FIG. 12C): relatively equivalent increase in lean (protein) mass
- vehicle-corrected decrease in percent body weight ([6]; two weeks, rimonabant 3 mg/kg/day oral gavage, amylin 100 μg/kg/day, FIG. 12A): ~6%
- changes in body fat (fat mass) ([7]; after two weeks, FIG. 11B): greater amount of fat mass loss
- changes in body protein (lean mass) ([7]; after two weeks, FIG. 11C): preserved lean (protein) mass
- vehicle-corrected decrease in percent body weight ([7]; two weeks, phentermine 10 mg/kg/day oral gavage, amylin 100 μg/kg/day, FIG. 11A): ~7%
- vehicle-corrected decrease in percent body weight [8]: 6%
